Results reported in patent publication US20150152088A1, “ALKYNYL HETEROAROMATIC COMPOUND AND USE THEREOF” (Nanjing Sanhome Pharmaceutical Co., Ltd., priority 2012, published 2015).

Columns and labels:
[1] = test system: Ovcar-3 human ovarian cancer cells; test: MTT assay, in vitro inhibitory activity on cells; format: cell-based; conditions: typically 48 hours
Excerpt: (§1) In this example, MTT assay was used to detect in vitro inhibitory activity of the compounds prepared according to the above examples on the cells. […] AP24534 was purchased from Shanghai Xinkuo Chemical Technology Co., Ltd., China.
(§2) Dimethyl sulfoxide (DMSO) is capable of dissolving formazan in cells, and absorbance value can be measured at a wavelength of 490 nm by an enzyme-linked immunometric meter, which reflects the number of living cells. Within a certain range of the number of cells, the amount of MTT crystals formed is proportional to the number of living cells.
(§3) 1. […] 2. Culturing in a 37° C., 5% CO2 incubator and keeping the cells adhering to the wall of the well. 3. […] 4. Carefully removing the supernatant, gently washing with PBS and discarding the supernatant again. 5. […] 6. Terminating culturing and carefully discarding the medium in each well. 7. Adding 150 μl dimethyl sulfoxide into each well, shaking for 10 minutes at low speed in a shaker, to make crystals fully dissolved. 8. Measuring the absorbance of each well at 490 nm by an enzyme-linked immunometric meter. 9. Calculating IC50 values.

[2] = test system: MDA-MB-231 human breast cancer cells; test: MTT assay, in vitro inhibitory activity on cells; format: cell-based; conditions: typically 48 hours
Excerpt: as §1, §2, §3

[3] = test system: K562 chronic myelogenous leukemia cells; test: MTT assay, in vitro inhibitory activity on cells; format: cell-based
Excerpt: as §1, §2, §3

[4] = test system: Saos-2 human osteosarcoma cells; test: MTT assay, in vitro inhibitory activity on cells; format: cell-based; conditions: typically 48 hours
Excerpt: as §1, §2, §3

Human ABL1 (T315I) = molecular target: T1, Human ABL1 (T315I) (Homo sapiens, UniProt P00519, T315I); test: ABL1 (T315I) kinase activity, [γ-33P] ATP / Abltide radiometric assay; format: biochemical; conditions: ATP 1.0 μM, 120 minutes, room temperature
T1 construct: purchased Millipore Corporation, USA #14-522
Method: Kinase activity was determined according to the manufacturer's instructions. Peptide substrate is Abltide ([…]), purchased from Millipore Corporation, USA. Ion exchange chromatography paper P81 was purchased from Whatman Company, UK. [γ-33P] ATP was purchased from Perkin Elmer Company.
[γ-33P] ATP was added at room temperature, with final concentration of 1.0 μM, and the reaction was performed for 120 minutes. 20 μl aliquots were transferred onto the ion exchange chromatography paper P81. The paper was thoroughly washed with a 0.75% phosphoric acid solution three times, and then washed with acetone once. Finally, γ-33P radioactivity was measured.

[5] = test system: KU812 human peripheral blood basophilic leukocytes; test: CellTiter-Glo cell viability assay on Bcr-Abl-positive cells; conditions: KU812, 72 h, read-out: IC50 KU812
[6] = test system: MEG-01 human megakaryocyte leukemia cells; test: as above; format: cell-based; conditions: 72 hours
Method: Each compound was dissolved in DMSO to 10 mM, diluted to 50 μM with complete medium, and then diluted to 10 μM with 0.1% DMSO in complete medium. The resulting solution was 10-fold serially diluted and formulated into 10 concentrations.
MEG-01 human megakaryocyte leukemia cells and KU812 human peripheral blood basophilic leukocytes, purchased from ATCC Company, USA.
6) Calculating cell viability (Cell Viability)=(RLUsample/RLUnegative)×100%, wherein RLUsample was RLU (Relative Light Units) value of the well added with the compound and RLUnegative was RLU value of the well without the compound (that is, cell control, which was treated with the same concentration of DMSO). Data were processed by using a four-parameter logistic fitting module in Graphpad Prism 4.0 software to calculate IC50.

[7] = Homo sapiens, K562, 48 h, typically 48 hours

Cc1ccc(C(=O)Nc2ccc(CN3CCN(C)CC3)c(C(F)(F)F)c2)cc1C#Cc1cnc2cccnn12 [AP24534, reference compound]
IC50 [1]: 1210 nM
IC50 [2]: 420 nM
IC50 ([3]; Homo sapiens, K562, typically 48 hours): 4800 nM
IC50 [4]: 380 nM

Cc1ccc(C(=O)Nc2ccc(CN3CCN(C)CC3)c(C(F)(F)F)c2)cc1C#Cc1cccc2[nH]nc(N)c12 [Example 1, 3-(3-amino-1H-indazol-4-yl)ethynyl-4-methyl-N-[4-(4-methylpiperazin-1-yl)methyl-3-trifluoromethylphenyl]benzamide]
IC50 (Human ABL1 (T315I)): 6.48 nM
IC50 [3, 7]: 1870 nM

Cc1ccc(C(=O)Nc2ccc(CN3CCN(C)CC3)c(C(F)(F)F)c2)cc1C#Cc1ccc2cncnc2c1 [Example 3, 3-((quinazolin-7-yl)ethynyl)4-methyl-N-[4-((4-methylpiperazin-1-yl)methyl)-3-trifluoromethylphenyl]benzamide]
IC50 (Human ABL1 (T315I)): 4.51 nM
IC50 [1]: 4470 nM
IC50 [2]: 2450 nM
IC50 [3, 7]: 1340 nM
IC50 [4]: 1070 nM

Cc1ccc(C(=O)Nc2ccc(CN3CCN(C)CC3)c(C(F)(F)F)c2)cc1C#Cc1cccc2ncncc12 [Example 4, 3-((quinazolin-5-yl)ethynyl)-4-methyl-N-[4-((4-methylpiperazin-1-yl)methyl)-3-trifluoromethylphenyl]benzamide]
IC50 (Human ABL1 (T315I)): 2.3 nM
IC50 [1]: 6230 nM
IC50 [2]: 1300 nM
IC50 [3, 7]: 2440 nM
IC50 [4]: 1590 nM

Cc1ccc(C(=O)Nc2ccc(CN3CCN(C)CC3)c(C(F)(F)F)c2)cc1C#Cc1cc(F)c2cnc(N)nc2c1 [Example 5, 3-((5-fluoro-2-aminoquinazolin-7-yl)ethynyl)-4-methyl-N-[4-((4-methylpiperazin-1-yl)methyl)-3-trifluoromethylphenyl]benzamide]
IC50 [1]: 6520 nM
IC50 [2]: 6710 nM
IC50 [3, 7]: 2120 nM
IC50 [4]: 310 nM

CNc1ncc2ccc(C#Cc3cc(C(=O)Nc4ccc(CN5CCN(C)CC5)c(C(F)(F)F)c4)ccc3C)cc2n1 [Example 6, 3-((2-methylaminoquinazolin-7-yl)ethynyl)-4-methyl-N-[4-((4-methylpiperazin-1-yl)methyl)-3-trifluoromethylphenyl]benzamide]
IC50 [1]: 8260 nM
IC50 [2]: 7890 nM
IC50 [3, 7]: 730 nM
IC50 [4]: 2100 nM

CNc1ncc2c(F)cc(C#Cc3cc(C(=O)Nc4ccc(CN5CCN(C)CC5)c(C(F)(F)F)c4)ccc3C)cc2n1 [Example 7, 3-((5-fluoro-2-methylaminoquinazolin-7-yl)ethynyl)-4-methyl-N-[4-((4-methylpiperazin-1-yl)methyl)-3-trifluoromethylphenyl]benzamide]
IC50 [1]: 2350 nM
IC50 [2]: 4140 nM
IC50 [3, 7]: 670 nM
IC50 [4]: 4700 nM

Cc1ccc(C(=O)Nc2ccc(CN3CCN(C)CC3)c(C(F)(F)F)c2)cc1C#Cc1ccc2c(=O)[nH]cnc2c1 [Example 9, 3-((4-oxo-3,4-dihydroquinazolin-7-yl)ethynyl)-4-methyl-N-[4-((4-methylpiperazin-1-yl)methyl)-3-trifluoromethylphenyl]benzamide]
IC50 [5]: 0.518 nM
IC50 (Human ABL1 (T315I)): 5.8 nM
IC50 [6]: 1.49 nM
IC50 [3, 7]: 5340 nM

Cc1ccc(C(=O)Nc2ccc(CN3CCN(C)CC3)c(C(F)(F)F)c2)cc1C#Cc1ccc2cnc(N)nc2c1 [Example 11, 3-((2-aminoquinazolin-7-yl)ethynyl)-4-methyl-N-[4-((4-methylpiperazin-1-yl)methyl)-3-trifluoromethylphenyl]benzamide]
IC50 [1]: 4720 nM
IC50 [2]: 2790 nM
IC50 [3, 7]: 900 nM
IC50 [4]: 1790 nM

CNc1ncnc2cc(C#Cc3cc(C(=O)Nc4ccc(CN5CCN(C)CC5)c(C(F)(F)F)c4)ccc3C)ccc12 [Example 12, 3-((4-methylaminoquinazolin-7-yl)ethynyl)-4-methyl-N-[4-((4-methylpiperazin-1-yl)methyl)-3-trifluoromethylphenyl]benzamide]
IC50 (Human ABL1 (T315I)): 31.7 nM
IC50 [3, 7]: 280 nM

Cc1ccc(C(=O)Nc2ccc(CN3CCN(C)CC3)c(C(F)(F)F)c2)cc1C#Cc1ccc2c(N)ncnc2c1 [Example 13, 3-((4-aminoquinazolin-7-yl)ethynyl)-4-methyl-N-[4-((4-methylpiperazin-1-yl)methyl)-3-trifluoromethylphenyl]benzamide]
IC50 [5]: 1.17 nM
IC50 (Human ABL1 (T315I)): 9.5 nM
IC50 [6]: 3.56 nM
IC50 [3, 7]: 4120 nM

Cc1ccc(C(=O)Nc2ccc(CN3CCN(CCO)CC3)c(C(F)(F)F)c2)cc1C#Cc1cccc2ncncc12 [Example 16, 3-((quinazolin-5-yl)ethynyl)-4-methyl-N-[4-((4-(2-hydroxyethyl)piperazin-1-yl)methyl)-3-trifluoromethylphenyl]benzamide]
IC50 (Human ABL1 (T315I)): 12.4 nM
IC50 [3, 7]: 7030 nM

Cc1ccc(C(=O)Nc2ccc(CN3CC[C@@H](N(C)C)C3)c(C(F)(F)F)c2)cc1C#Cc1cccc2ncncc12 [Example 18, 3-((quinazolin-5-yl)ethynyl)-4-methyl-(R)—N-[4-((3-(dimethylamino)pyrrolidin-1-yl)methyl)-3-trifluoromethylphenyl]benzamide]
IC50 (Human ABL1 (T315I)): 21.7 nM
IC50 ([3]; typically 48 hours): 470 nM

Cc1cn(-c2cc(NC(=O)c3ccc(C)c(C#Cc4cccc5ncncc45)c3)cc(C(F)(F)F)c2)cn1 [Example 20, 3-((quinazolin-5-yl)ethynyl)-4-methyl-N-[3-(4-methyl-1H-imidazol-1-yl)-5-trifluoromethylphenyl]benzamide]
IC50 (Human ABL1 (T315I)): 43.5 nM
IC50 [3, 7]: 1140 nM

Cc1ccc(C(=O)Nc2ccc(CN3CCC(N(C)C)CC3)c(C(F)(F)F)c2)cc1C#Cc1ccc2nccnc2c1 [Example 21]
IC50 (Human ABL1 (T315I)): 24.3 nM
IC50 [3, 7]: 3310 nM

Cc1ccc(C(=O)Nc2ccc(CN3CCN(C)CC3)c(C(F)(F)F)c2)cc1C#Cc1ccc2nccnc2c1 [Example 23]
IC50 (Human ABL1 (T315I)): 6 nM
IC50 [3, 7]: 2840 nM

Cc1ccc(NC(=O)Nc2ccc(CN3CCN(C)CC3)c(C(F)(F)F)c2)cc1C#Cc1ccc2cncnc2c1 [Example 31]
IC50 [3, 7]: 1090 nM

Cc1ccc(NC(=O)Nc2ccc(CN3CCN(C)CC3)c(C(F)(F)F)c2)cc1C#Cc1cccc2[nH]nc(N)c12 [Example 32, N-[3-((3-amino-1H-indazol-4-yl)ethynyl)-4-methyl]phenyl-N′-[4-((4-methylpiperazin-1-yl)methyl)-3-trifluoromethylphenyl]urea]
IC50 [1]: 6970 nM
IC50 [2]: 2110 nM
IC50 [3, 7]: 660 nM
IC50 [4]: 2130 nM
